Results on 42 compounds are retold here after patent US20240360114A1 (SIRONAX LTD., priority 2021, published 2024).

By EC50 is commonly meant the midpoint of the concentration-response curve. A lower EC50 goes with an effect from little substance.

The subject of one test is HT-1080 cells. As to the kind of experiment: HT-1080 cell viability assay (ferroptosis induced by RSL3, Cell Titer-Glo). In kind it is cell-based. To be noted: Homo sapiens, HT-1080, 20 h, ferroptosis inducer RSL3, 20 hours, ferroptosis inhibitory activity, Table 2. Summed up: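 EC50 fitted by sigmoidal dose-response regression on luminescent viability data normalized to untreated cells. Compounds ran as a 10-point, 3-fold series from 1.1 μM alongside RSL3 for 20 hours, after overnight seeding.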
For orientation: ATP-based viability assays read luminescence as a measure of living cells.
In turn, `CCc1nc(N2C[C@@H](C)O[C@@H](C)C2)ccc1NC[C@H]1CC[C@H](N)CC1` [Compound 544, N-(((1r,4R)-4-aminocyclohexyl)methyl)-6-((2S,6R)-2,6-dimethylmorpholino)-2-ethylpyridin-3-amine] had an EC50 of 0.1 to 100 nM. The same measure, in the same setting: next, `CC(C)(C)c1ccc(NC2CCC(N)CC2)c(Cl)c1` (single isomer, unassigned) [Compound 183A, N1-(4-(tert-butyl)-2-chlorophenyl)cyclohexane-1,4-diamine]: 1000 to 10000 nM; `Cc1cc(N2CCC(C(F)(F)F)CC2)cc(C)c1NCC[C@H]1CC[C@H](N)CC1` [Compound 391, N-(2-((1r,4r)-4-aminocyclohexyl)ethyl)-2,6-dimethyl-4-(4-(trifluoromethyl)piperidin-1-yl) aniline]: 0.1 to 100 nM; `CC(C)C1CCN(c2ncc(NC3CC4(CC(O)C4)C3)cn2)CC1` (stereo not drawn) [Compound 422, 6-((2-(4-isopropylpiperidin-1-yl)pyrimidin-5-yl)amino)spiro[3.3]heptan-2-ol]: 0.1 to 100 nM. For the compound `CNCC1CCC(Nc2ccc(C(C)(C)C)cc2)C1` (stereo not drawn) [Compound 263, 4-(tert-butyl)-N-(3-((methylamino)methyl)cyclopentyl)aniline], the EC50 lay in the range of 100 to 1000 nM. Still for that read-out and setting: next, `NCCOc1cc(NC2CCC(N)CC2)ccc1N1CCC(C(F)(F)F)CC1` (stereo not drawn) [Compound 41A, N1-(3-(2-aminoethoxy)-4-(4-(trifluoromethyl)piperidin-1-yl)phenyl)cyclohexane-1,4-diamine]: 100 to 1000 nM. Compound `Cc1c(N2CC(C)OC(C)C2)ccc(NC[C@H]2CC[C@H](N)CC2)c1F` (stereo partly drawn) [Compound 469, N-(((1r,4r)-4-aminocyclohexyl)methyl)-4-(2,6-dimethylmorpholino)-2-fluoro-3-methylaniline] gave an EC50 of 100 to 1000 nM. Same read-out and setting: next, `Cc1cc(NC[C@H]2CC[C@H](N)CC2)cc(C)c1N1CC(C)OC(C)C1` (stereo partly drawn) [Compound 451, (((1r,4r)-4-aminocyclohexyl)methyl)-4-(2,6-dimethylmorpholino)-3,5-dimethylaniline]: 0.1 to 100 nM; `COC1(C(F)(F)F)CCN(c2ccc(NC[C@H]3CC[C@H](N)CC3)c(C)n2)CC1` [Compound 510, N-(((1r,4r)-4-aminocyclohexyl)methyl)-6-(4-methoxy-4-(trifluoromethyl)piperidin-1-yl)-2-methylpyridin-3-amine]: 0.1 to 100 nM; `CCCC1CCN(c2ncc(NC3CCC(N)CC3)cn2)CC1` (stereo not drawn) [Compound 29, N1-(2-(4-propylpiperidin-1-yl)pyrimidin-5-yl)cyclohexane-1,4-diamine]: 0.1 to 100 nM. `CC(C)(C)c1ccc(NC2CCC(N)(C(=O)O)CC2)cc1` (stereo not drawn) [Compound 189, 1-amino-4-((4-(tert-butyl)phenyl)amino)cyclohexane-1-carboxylic acid] displayed an EC50 of 1000 to 10000 nM. Same read-out and setting: next, `CC(=O)NC1CCC(Nc2ccc(C(C)(C)C)cc2)CC1` (single isomer, unassigned) [Compound 216A, N-(4-((4-(tert-butyl)phenyl)amino)cyclohexyl)acetamide]: 100 to 1000 nM; `CNC1CCC(Nc2ccc(C(C)(C)C)cc2)C1` (stereo not drawn) [Compound 194, N1-(4-(tert-butyl)phenyl)-N3-methylcyclopentane-1,3-diamine]: 100 to 1000 nM. Regarding `NC1CCCCC1Nc1ccc(N2CCC(C(F)(F)F)CC2)cc1` (stereo not drawn) [Compound 402, N1-(4-(4-(trifluoromethyl)piperidin-1-yl)phenyl)cyclohexane-1,2-diamine], the EC50 was 0.1 to 100 nM.

Regarding `CC(C)C1CCN(c2ncc(NC3CCNC3)cn2)CC1` (stereo not drawn) [Compound 36, 2-(4-isopropylpiperidin-1-yl)-N-(pyrrolidin-3-yl)pyrimidin-5-amine], the EC50 fell in the range of 0.1 to 100 nM. Still for that read-out and setting: the result for `CCCCOc1ccc(NC2CCC(N)CC2)cc1` (single isomer, unassigned) [Compound 142A, N1-(4-butoxyphenyl)cyclohexane-1,4-diamine] reads 0.1 to 100 nM. Still for that read-out and setting: next, `NC1CCC(Nc2ccc3c(c2)CCCC3)CC1` (stereo not drawn) [Compound 236, N1-(5,6,7,8-tetrahydronaphthalen-2-yl)cyclohexane-1,4-diamine]: 0.1 to 100 nM; `N[C@H]1CC[C@@H](Nc2ccc(N3CCC(C(F)(F)F)CC3)cc2)CC1` [Compound 355, (1s,4s)-N1-(4-(4-(trifluoromethyl)piperidin-1-yl)phenyl)cyclohexane-1,4-diamine]: 0.1 to 100 nM; `NC1CCC(Nc2ccc(Oc3ccccc3)cc2)CC1` (stereo not drawn) [Compound 239, N1-(4-phenoxyphenyl)cyclohexane-1,4-diamine]: 0.1 to 100 nM. Still for that read-out and setting: the result for `CC(C)C1CCN(c2ncc(NC3CC4(CC(NCC(F)F)C4)C3)cn2)CC1` (stereo not drawn) [Compound 413, N2-(2,2-difluoroethyl)-N6-(2-(4-isopropylpiperidin-1-yl)pyrimidin-5-yl)spiro[3.3]heptane-2,6-diamine] reads 0.1 to 100 nM.

`CN1CCC(Nc2ccc(N3CCC(C(F)(F)F)CC3)cc2)C1` (stereo not drawn) [Compound 16, 1-methyl-N-(4-(4-(trifluoromethyl)piperidin-1-yl)phenyl)pyrrolidin-3-amine] returned an EC50 of 0.1 to 100 nM. The same measure, in the same setting: the result for `CC1(C)CCCc2cc(NC3CCC(N)CC3)ccc21` (stereo not drawn) [Compound 337A, 1-N-(5,5-dimethyl-5,6,7,8-tetrahydronaphthalen-2-yl)cyclohexane-1,4-diamine] reads 0.1 to 100 nM; that for `Cc1cc(C)c(NC2CCC(N)CC2)c(C)c1` (stereo not drawn) [Compound 219, N1-mesitylcyclohexane-1,4-diamine], 1000 to 10000 nM. Compound `N[C@@H]1CCC[C@H]1Nc1ccc(N2CCC(C(F)(F)F)CC2)cc1` [Compound 444, (1R,2R)-N1-(4-(4-(trifluoromethyl)piperidin-1-yl)phenyl)cyclopentane-1,2-diamine] came in with an EC50 of 0.1 to 100 nM. Same read-out and setting: the result for `FC(F)(F)C1CCN(c2ccc(NC3CCOCC3)cc2)CC1` [Compound 17, N-(4-(4-(trifluoromethyl)piperidin-1-yl)phenyl)tetrahydro-2H-pyran-4-amine] reads 0.1 to 100 nM; that for `COC1(C(F)(F)F)CCN(c2ccc(NC[C@H]3CC[C@H](N)CC3)cc2)CC1` [Compound 459, N-(((1r,4r)-4-aminocyclohexyl)methyl)-4-(4-methoxy-4-(trifluoromethyl)piperidin-1-yl)aniline], 0.1 to 100 nM. Same read-out and setting: the result for `CC[C@@H]1CN(c2ccc(NC[C@H]3CC[C@H](N)CC3)c(C)n2)C[C@@H](CC)O1` [Compound 548, N-(((1r,4R)-4-aminocyclohexyl)methyl)-6-((2R,6R)-2,6-diethylmorpholino)-2-methylpyridin-3-amine] reads 0.1 to 100 nM; that for `CC1(C)CCC(c2ccc(NCCCCN3CCCC3)cc2)CC1` [Compound 105, 4-(4,4-dimethylcyclohexyl)-N-(4-(pyrrolidin-1-yl)butyl)aniline], 0.1 to 100 nM.

`CC(C)C1CCN(c2ncc(NC[C@H]3CC[C@H](C(N)=O)CC3)cn2)CC1` [Compound 423, (1r,4r)-4-(((2-(4-isopropylpiperidin-1-yl)pyrimidin-5-yl)amino)methyl)cyclohexane-1-carboxamide] registered an EC50 of 0.1 to 100 nM.

For `Cc1nc(N2CC(C)SC(C)C2)ccc1NC1CC2(CC(N)C2)C1` (stereo not drawn) [Compound 568, N2-(6-(2,6-dimethylthiomorpholino)-2-methylpyridin-3-yl)spiro[3.3]heptane-2,6-diamine], the EC50 was 0.1 to 100 nM.

Compound `Cc1nc(N2CC(C)OC(C)C2)ccc1NC1CC2CC1CC2N` (stereo not drawn) [Compound 504, N2-(6-(2,6-dimethylmorpholino)-2-methylpyridin-3-yl)bicyclo[2.2.1]heptane-2,5-diamine] showed an EC50 of 0.1 to 100 nM. For the compound `CC1(C)CN(c2ncc(NC3CCC(N)CC3)cn2)C1` (stereo not drawn) [Compound 33A, N1-(2-(3,3-dimethylazetidin-1-yl)pyrimidin-5-yl)cyclohexane-1,4-diamine], the EC50 was in the range of 1000 to 10000 nM.

For `CCC(C)(C)c1ccc(NC[C@H]2CC[C@H](N)CC2)cc1` [Compound 342, N-(((1r,4r)-4-aminocyclohexyl)methyl)-4-(tert-pentyl)aniline], the EC50 was 0.1 to 100 nM. Same read-out and setting: next, `NCC1CCC(Nc2ccc(C3CCCCC3)cc2)CC1` (single isomer, unassigned) [Compound 82A, N-(4-(aminomethyl)cyclohexyl)-4-cyclohexylaniline]: 0.1 to 100 nM.

The same test, now with this note: Homo sapiens, HT-1080, 20 h, ferroptosis inducer RSL3, 20 hours, ferroptosis inhibitory activity, Table 3.
Consider `CC[C@@H]1CN(c2ccc(NC3CC(N)C3)c(C)n2)C[C@H](CC)O1` (stereo partly drawn) [Compound 576, N1-(6-((2S,6R)-2,6-diethylmorpholino)-2-methylpyridin-3-yl)cyclobutane-1,3-diamine], for which the EC50 lay in the range of 0.1 to 100 nM. Compound `CC1CN(c2ccc3cc(NC4CC5(CC(N)C5)C4)ccc3c2)CCO1` (stereo not drawn) [Compound 648] came in with an EC50 of 0.1 to 100 nM.

The compound `Cc1cc(NC2CC(N)C2)ccc1N1CC(C)N(CC(F)(F)F)C(C)C1` (stereo not drawn) [Compound 612, N1-(4-(3,5-dimethyl-4-(2,2,2-trifluoroethyl)piperazin-1-yl)-3-methylphenyl)cyclobutane-1,3-diamine] had an EC50 of 0.1 to 100 nM. The same measure, in the same setting: next, `Cc1nc(N2CC(C)(C)OC(C)(C)C2)ccc1NC1CC2(CC(NCC(F)(F)F)C2)C1` (stereo not drawn) [Compound 589]: 0.1 to 100 nM; `CCc1nc(N2CC(C)N(CC(F)(F)F)C(C)C2)c(F)cc1NC1CC(N)C1` (stereo not drawn) [Compound 635, N1-(6-(3,5-dimethyl-4-(2,2,2-trifluoroethyl)piperazin-1-yl)-2-ethyl-5-fluoropyridin-3-yl)cyclobutane-1,3-diamine]: 0.1 to 100 nM. The same measure, in the same setting: next, `Cc1nc(N2CC(C)OC(C)C2)ccc1NC1CCC2(CC1)CC(N)C2` (stereo not drawn) [Compound 624, N^7-(6-(2,6-dimethylmorpholino)-2-methylpyridin-3-yl)spiro[3.5]nonane-2,7-diamine]: 0.1 to 100 nM.

The same test, now with this note: ferroptosis inducer RSL3, 20 hours, ferroptosis inhibitory activity, Table 2.
With `NCC1CCC(Nc2ccccc2)CC1` (single isomer, unassigned) [Compound 92A, N-(4-(aminomethyl)cyclohexyl)aniline], the EC50 was 1000 to 10000 nM.

The test is the same for the next values; noted with them: ferroptosis inducer RSL3, 20 hours, ferroptosis inhibitory activity, Table 3.
Turning to `CC1CN(c2ccc3cc(NC4CC(N)C4)ccc3c2)CCO1` (stereo not drawn) [Compound 630, N^1-(6-(2-methylmorpholino)naphthalen-2-yl)cyclobutane-1,3-diamine], the EC50 was in the range of 0.1 to 100 nM.
